Measurements reported in paper PMC7382742, “Identification of Potential Inhibitors of Calcium/Calmodulin-Dependent Protein Kinase IV from Bioactive Phytoconstituents” (Oxidative Medicine and Cellular Longevity, 2020).

Assays:
[1] = molecular target: T1, Calcium/calmodulin-dependent protein kinase IV (CaMKIV) (Homo sapiens, UniProt Q16566); experiment: malachite green (BIOMOL Green) ATPase inhibition assay with recombinant refolded CaMKIV; also intrinsic fluorescence quenching (binding constant […] ^-1); type: biochemical
T1 construct: gene CAMK4; CaMKIV kinase domain
T1 sequence (Q16566 46-300 limits assumed): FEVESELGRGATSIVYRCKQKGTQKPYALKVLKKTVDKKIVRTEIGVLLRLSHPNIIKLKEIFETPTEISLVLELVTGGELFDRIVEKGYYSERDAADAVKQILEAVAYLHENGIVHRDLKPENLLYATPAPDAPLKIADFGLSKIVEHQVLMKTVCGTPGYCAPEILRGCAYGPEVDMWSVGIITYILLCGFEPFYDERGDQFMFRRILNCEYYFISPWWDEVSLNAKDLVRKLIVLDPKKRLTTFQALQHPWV

[2] = molecular target: T1, Calcium/calmodulin-dependent protein kinase IV (CaMKIV); experiment: malachite green (BIOMOL Green) ATPase inhibition assay with recombinant refolded CaMKIV; also intrinsic fluorescence quenching (Ksv […] ^-1); type: biochemical

| SMILES | IC50 [1] [µM] | IC50 [2] [µM] |
| --- | --- | --- |
| O=c1oc2c(O)c(O)cc3c(=O)oc4c(O)c(O)cc1c4c23 [EA, ellagic acid] | 39.7 ± 8.6 |  |
| O=c1c(O)c(-c2ccc(O)c(O)c2)oc2cc(O)cc(O)c12 [quercetin] |  | 61.3 ± 5.4 |
